Experimental data as given in patent US10596184B2, “Aza-heteroaryl compounds as PI3K-gamma inhibitors” (Incyte Corporation, priority 2015, dated 2020).
pIC50: −log10 of the molar value. Like-named read-outs stand apart in the source and are kept apart here.

System: Phosphorylated Ribosomal Protein S6 (RPS6) in THP-1 cells
Assay: THP-1 RPS6 ELISA Assay
Type: cell-based, Human
Settings: 2 hours with compound, then 10 nM MCP-1 for 15 minutes, read-out: THP p-RPS6 ELISA IC50
Experimental: To measure the Phosphorylated Ribosomal Protein S6 (RPS6) in cell lysates, THP-1 cells (Human Acute Monocytic Leukemia) are purchased from ATCC (Manassas, Va.) and maintained in RPMI with 10% FBS (Gibco/Life Technologies, Carlsbad, Calif.). For the assay, THP-1 cells are serum starved overnight in RPMI, then plated in RPMI (2×10^5 cells/well in 90 μL) into 96-well flat-bottom tissue culture treated plates (Corning, Corning, N.Y.), in the presence or absence of a concentration range of test compounds. Covered plates are incubated for 2 hours at 37° C., 5% CO2 then treated with or without 10 nM MCP-1 (MYBioSource, San Diego, Calif.) for 15 minutes at 37° C., 5% CO2. Plates are centrifuged at 1600 RPM and supernatants are removed. Cells are lysed in Lysis Buffer (Cell Signaling, Danvers, Mass.) with Protease Inhibitor (Calbiochem/EMD, Germany), PMSF (Sigma, St Louis Mo.), HALTS (Thermo Fisher, Rockford, Ill.) for 30 min on wet ice. Cell lysates are frozen at −80° C. before testing. The lysates are tested in the Human/Mouse/Rat Phospho-RPS6 ELISA (R&D Systems, Inc. Minn, Minn.). The plate is measured using a microplate reader (SpectraMax M5—Molecular Devices, LLC Sunnyvale, Calif.) set to 450 nm with a wavelength correction of 540. […]

SMILES	pIC50	pIC50 (Homo sapiens)
CN1CCN(S(=O)(=O)Nc2cncc(-c3ccc4nc(-c5nc6ccccc6[nH]5)oc4c3)c2)CC1 [Example 31, N-(5-(2-(1H-Benzofdlimidazol-2-yl)benzo[d]oxazol-6-yl)pyridin-3-yl)-4-methylpiperazine-1-sulfonamide]	> 6.00	
CCS(=O)(=O)Nc1cncc(-c2ccc3nc(-c4nc(C)c(C)[nH]4)oc3c2)c1 [Example 63, N-(5-(2-(4,5-Dimethyl-1H-imidazol-2-yl)benzo[d]oxazol-6-yl)pyridin-3-yl)ethanesulfonamide bis(trifluoroacetate)]		> 5.30
